Measurements reported in publication PMC8564633, “SMAC/Diablo controls proliferation of cancer cells by regulating phosphatidylethanolamine synthesis” (Molecular Oncology, 2021).
Blank lines part the entries; values can stand above or below the molecule they belong to. Non-standard residues stand in square brackets, D forms with d. No end group written: not given here. Dmt = Cc1cc(O)cc(C)c1C[C@H](N)C(=O)O; Orn = NCCC[C@H](N)C(=O)O

Experiments:
purified SMAC = assay: Glass‐bound peptide array blotted with SMAC with or without PSD; assay type: binding, human; conditions: SMAC preincubated with purified PSD, anti‐SMAC antibodies
Description: Customized 768‐peptide sequences derived from 11 SMAC‐interacting proteins produced by INTAVIS Peptide Services (GmbH & Co. KG, Tübingen, Germany) were arrayed on a glass slide. Peptide arrays were blotted with SMAC, PSD or peptides interacting with PSD using anti‐SMAC or anti‐PSD antibodies. The interaction of purified SMAC or PSD with glass‐bound peptide arrays was assessed by slide washing (three times, 10 min each) with Tris‐buffered saline (150 mM NaCl, 50 mM Tris/HCl, pH 7.4), followed by overnight incubation with blocking buffer (Tris‐buffered saline containing low‐fat dry milk, 2.5%, w/v). The slides were then incubated for 4 h or overnight with purified SMAC (0.8 µM) with and without preincubation with PSD (0.3 µM). Similarly, slides were incubated with PSD (0.15 µM) with or without preincubation with the indicated peptide (20 μM) in blocking buffer at room temperature. After extensive slide washing with Tris‐buffered saline containing 0.05% Tween‐20, SMAC or PSD binding was detected using anti‐SMAC or anti‐PSD antibodies and HRP‐conjugated anti‐rabbit or anti‐mouse IgG as a secondary antibody. The blots were developed using EZ‐ECL (Biological Industries), according to the manufacturer’s instructions.
Fig. 6 PSD‐ and SMAC‐interacting partners. (A) Schematic presentation of peptide array and detection of their interaction with SMAC. (B) Glass‐bound peptide array consisting of overlapping peptides derived from 15 SMAC‐interacting proteins were incubated overnight with purified SMAC (0.8 µM) and then blotted with anti‐SMAC antibodies (1 : 1000), followed by incubation with HRP‐conjugated anti‐mouse IgG and detection using a chemiluminescence kit. Dark spots represent binding of SMAC to peptides derived from SMAC‐interacting proteins. (C) SMAC (0.3 µM) was incubated with purified PSD (0.4 µM) and blotted as in (B). The peptide spots where PSD prevented interaction with SMAC (Table S1) are circled. (D) Schematic presentation of peptide array and detection of their interaction with PSD. […]

different cell lines = conditions: ref [35], cited from earlier work
Description: To target the peptide to the nucleus (nuCPP), the peptides were fused to the tetrapeptide RrRK (r = D‐arginine), shown to primarily target the nucleus of HeLa cells.

purified PSD = molecular target: T1, purified PSD (Homo sapiens, UniProt Q9UG56); assay: MST, labelled PSD with synthetic peptides; conditions: labelled PSD 0.25 µM, peptide 1–10 µM, 30 min, 37 °C, n = 3, read-out: Kd, peptide binding to purified PSD
T1 construct: Purified recombinant protein (full length) of human phosphatidylserine decarboxylase (PSD); His tag (N); purchased Acris-OriGene; host or cells: E. coli
T1 sequence (Q9UG56 53-409): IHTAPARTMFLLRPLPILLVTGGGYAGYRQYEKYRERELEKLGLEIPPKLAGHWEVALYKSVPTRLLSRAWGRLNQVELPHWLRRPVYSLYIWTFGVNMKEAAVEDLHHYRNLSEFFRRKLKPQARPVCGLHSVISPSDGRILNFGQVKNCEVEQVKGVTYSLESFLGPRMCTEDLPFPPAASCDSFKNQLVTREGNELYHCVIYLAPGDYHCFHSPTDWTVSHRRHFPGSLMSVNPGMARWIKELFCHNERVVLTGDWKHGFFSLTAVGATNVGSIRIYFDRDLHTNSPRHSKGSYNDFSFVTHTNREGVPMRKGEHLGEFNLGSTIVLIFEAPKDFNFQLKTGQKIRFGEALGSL

[1] = Cell death induced by the PE probe; assay type: cell-based; conditions: data not shown
phospholipid levels = assay: Total PL, PC and PE levels in treated tumours; assay type: in vivo; conditions: si‐hSMAC‐A‐TTs relative to si‐NT‐TTs, n = 6 mice per group
Description: Total lipids were extracted from the SMAC‐KO and wild‐type A549/HEK 293T cells by the Folch method. Briefly, a cell suspension (2 × 10^7 cells/mL) was made in CHCl3/MeOH (2 : 1, v/v) sonicated for 30 s. Water (116 μL·mL^−1) was added to the suspension and shaken for 2 h at room temperature at 300 r.p.m. The aqueous suspension was heated for 10 min at 60 °C and stored at 4 °C for 3 h. Undissolved material was filtered through a 0.45‐μm syringe filter. Solvent was evaporated under nitrogen, and residues were re‐dissolved in CHCl3/MeOH for lipid analysis.
Total phospholipid content of the cells was determined calorimetrically at 488 nm based on the formation of a complex between the PLs and ammonium ferrothiocyanate. PC level was also determined by calorimetric analysis at 316 nm using ammonium thiocyanatocobaltate reagent, as described previously.
PE content in the lipid samples was measured as described previously. Briefly, solvent was evaporated from the lipid samples under nitrogen gas, and samples were resuspended in 0.8 mM Triton X‐100. Sample aliquots were added to 96‐well plates containing (50 µL) reaction mixture (80 mM NaCl, 2 mM K2HPO4, pH 7.4) and of borate buffer (12.5 µL) (100 mM boric acid, 75 mM NaCl, 25 mM sodium tetraborate, pH 9). After mixing, 12.5 µL of 100 µM DSB‐3, in 10 mM K2HPO4 (pH 7.4), was then added and incubated for 2 h in the dark with shaking (100 r.p.m.). Fluorescence was measured using excitation λex = 403 nm and emission λem = 508 nm. A calibration curve was obtained using PE (Biovision) as a standard.
(§1) Results are presented as the mean tumour volume ± SEM. […] Results are the means ± SEM.

A549 cell xenograft [2] = assay: A549 lung cancer xenograft tumour growth; assay type: in vivo, athymic nude mice; conditions: relative to si‐NT‐treated tumours, nude mice, n = 8 mice/group
Description: Male Hsd:Athymic ' Nude‐Foxn1nu mice (6–8 weeks old) were obtained from Envigo and were kept in the university animal facility in temperature‐controlled rooms and provided with water and food pellets ad libitum. All procedures involving mice were approved by the Ben‐Gurion Institutional Animal Care and Use Committee.
Lung cancer A549 (3 × 10 ^6 ) cells were implanted subcutaneously on the dorsal flanks. Tumour growth was recorded using digital calibre, and volumes were calculated using, volume = X^2 × Y/2, where X and Y are the short and long tumour dimensions, respectively. Mice were divided randomly into three groups once the average tumour volume reached ˜ 80 mm^3 and were treated subcutaneously with si‐NT or si‐hSMAC‐A mixed with JetPEI reagent (350 or 700 nM final concentration) three times a week. Mice were sacrificed at the end of experiment, and the tumours were excised and processed for immunohistochemistry (IHC) or frozen in liquid nitrogen for immunoblotting and RNA isolation.
as §1

[3] = test system: VDAC1‐IP3R close association (MAM); assay: In‐situ proximity ligation assay VDAC1‐IP3R (MAM) in tumour sections; assay type: in vivo; conditions: si‐hSMAC‐A‐TTs sections relative to si‐NT‐TTs
Description: PLA was conducted as previously described using an in␣situ detection reagent red kit (DuoLink InSitu PLA Probe kit; Sigma‐Aldrich) according to the manufacturer’s protocol. VDAC1‐IP3R and SMAC‐PSD were analysed using PLA [24]. Briefly, for tumour section, formalin‐fixed and paraffin‐embedded tumour sections (5‐μm thick) were deparaffinized and then permeabilized using 0.3% Triton X‐100 in PBS for 30 min, followed by blocking with Duolink® Blocking Solution for 1 h. Sections were incubated overnight with anti‐VDAC1 (rabbit 1 : 750) and anti‐IP3R (mouse, 1 : 750), washed twice with TBS‐Tween (0.01%) and then incubated for 1 h with the secondary anti‐mouse and anti‐rabbit antibodies (PLA probe MINUS and PLUS) that were conjugated to complementary oligonucleotide extensions, and ligation and amplification steps were performed per manufacturer’s instructions, and Texas red‐labelled oligonucleotide probes were detected.
Fig. 3 Subcellular morphological alterations including ER‐mitochondria contact sites, as induced by reduction of SMAC levels. […] (C) and subjected to quantitative analysis (n = 5) (D). […] Images at high magnification (Ea,b) (scale bars represent 20, 5 µm as indicated) and ligation product quantification (F) are also shown.

Ki‐67 = conditions: si‐hSMAC‐A‐TTs versus si‐NT‐TTs, IHC
SMAC/Diablo = assay: SMAC expression in treated tumours (immunoblot, IHC); assay type: in vivo, human; conditions: si‐hSMAC‐A‐TTs versus si‐NT‐TTs, n = 6 mice/group
Description: Cells were harvested and washed twice with ice‐cold PBS, and the pellets were lysed on ice for 30 min in a lysis buffer (50 mM Tris/HCl, pH 7.5, 150 mM NaCl, 1 mM EDTA, 1.5 mM MgCl2, 10% glycerol, 1% Triton X‐100), freshly supplemented with a protease inhibitor cocktail (Calbiochem) and centrifuged (10 min, 12 000 g ). The protein concentration of the supernatant was determined, and cells were stored at −80 °C until used for gel electrophoresis and immunoblotting. Protein samples (10–20 μg) were subjected to SDS‐PAGE and immunoblotting, using the selected primary antibodies, followed by incubation with HRP‐conjugated secondary antibodies. HRP activity was determined using EZ‐ECL (Biological Industries). Band intensity was quantified using FUSION‐FX (Vilber Lourmat, Collégien, France).
as §1

A549 cell xenograft [4] = assay: TUNEL staining of treated tumours; assay type: in vivo, athymic nude mice; conditions: si‐hSMAC‐A‐TTs, data not shown
[5] = molecular target: T2, Purified recombinant protein (full length) of human phosphatidylserine decarboxylase (PSD) (human, UniProt Q9UG56 53-409, fluorescently labelled (in the MST with the peptides 2F3 and 1C11 only)); assay: MST; SMAC fluorescently labelled (NanoTemper BLUE kit), 1 µM, incubated with purified PSD (78–625 nM) for 30 min at 37 °C; 10 mM Tris buffer, pH 7.4; Monolith NT.115, LED 20%, IR laser 20%; conditions: both partners purified
T2 construct: phosphatidylserine decarboxylase, human, full length, recombinant; also called PISD; purified PSD; source: bought: Acris‐OriGene, expressed in E. coli, purified; not shown: His tag, N-terminal, kept
T2 sequence (looked up): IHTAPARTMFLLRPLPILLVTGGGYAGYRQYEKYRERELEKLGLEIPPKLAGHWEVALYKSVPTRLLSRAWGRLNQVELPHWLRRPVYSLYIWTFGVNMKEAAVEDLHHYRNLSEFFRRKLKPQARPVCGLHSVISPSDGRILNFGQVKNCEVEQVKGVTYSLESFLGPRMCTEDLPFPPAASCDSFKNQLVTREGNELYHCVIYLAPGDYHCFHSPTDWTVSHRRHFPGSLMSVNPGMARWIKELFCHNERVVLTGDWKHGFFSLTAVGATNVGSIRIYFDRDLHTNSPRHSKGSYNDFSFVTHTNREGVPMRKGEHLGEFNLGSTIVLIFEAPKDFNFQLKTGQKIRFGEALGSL

Molecule: [dR][Dmt][Orn]F-NH2 [mtCPP‐1]
- toxicity (different cell lines; different cell lines): no toxicity
- induction of apoptosis (different cell lines): did not induce apoptosis

Molecule: ALSTSSPIPSVPQSQAQPQTGSGAS [2F3]
- Kd (purified PSD): 3 µM

Molecule: Distyrylbenzene‐bis‐aldehyde [DSB‐3]
- cell death [1]: no cell death

Molecule: si‐hSMAC‐A: Human SMAC/Diablo‐specific siRNA, sense 5′AAGCGGUGUUUCUCAGAATTGtt3′, antisense 5′AACAAUUCUGAGAAACCCG Ctt3′ (sense AAGCGGUGUUUCUCAGAATTGTT; antisense AACAAUUCUGAGAAACCCGCTT; chemistry not given here)
- levels of PE increased (phospholipid levels; DSB‐3 probe): 200%
- levels of PC decreased (phospholipid levels): 65%
- levels of PLs decreased (phospholipid levels): 50%
- tumour volume reduced (A549 cell xenograft [2]; si‐hSMAC‐A 350 nM): 50%
- tumour volume reduced (A549 cell xenograft [2]; si‐hSMAC‐A 700 nM): 85%
- PLA signal VDAC1‐IP3R [3]: over fourfold
- expression of Ki‐67, cell proliferation marker (Ki‐67): highly reduced
- SMAC/Diablo level decreased (SMAC/Diablo): 75%
- cell death, TUNEL staining (A549 cell xenograft [4]): No cell death was detected

More lines, now with the values ahead:

- effect of PSD preincubation on SMAC binding to the peptide spot (purified SMAC): prevented SMAC interaction
Molecule: PNQSSRAFQGT DHSSDLAFDFLSQQ [2I8]

- effect of PSD preincubation on SMAC binding to the peptide spot (purified SMAC): prevented SMAC interaction
Molecule: FQQLTCVLPI LDNLLKANVINKQEH [1E14]

- Kd (purified PSD): 3 µM
Molecule: ALLTSGTSDPRARVTYGTPSLWRL [1C11]

- effect of PSD preincubation on SMAC binding to the peptide spot (purified SMAC): prevented SMAC interaction
Molecule: DVDKLREQLS TSENALTGRILDLKT [2J14]

- Kd [5]: 0.246 µM
B1: Human recombinant SMAC (SMAC/Diablo, second mitochondria‐derived activator of caspase/direct inhibitor of apoptosis‐binding protein with low pI) (natural protein)
chain: AVPIAQKSEPHSLSSEALMRRAVSLVTDSTSTFLSQTTYALIEAITEYTKAVYTLTSLYRQYTSLLGKMNSEEEDEVWQVIIGARAEMTSKHQEYLKLETTWMTAVGLSEMAAEAAYQTGADQASITARNHIQLVKLQVEEVHQLSRKAETKLAEAQIEELRQKTQEEGEERAESEQEAYLRED
modifications: fluorescently labelled with the NanoTemper Protein labelling kit BLUE (in the MST with PSD only)
